Experimental findings from patent US10689458B2, “Site specific HER2 antibody drug conjugates” (Pfizer Inc., priority 2015, dated 2020) are described below.

“Also recorded” adds a separate entry of the source. Read-outs that look alike come from different tables or passages of the source. Square brackets hold non-standard residues; d marks the D form. Peptide text beside a SMILES is read from it. * marks the point of attachment. Dolaproine = CO[C@@H]([C@@H]1CCCN1)[C@@H](C)C(=O)O; Dil = CC[C@H](C)[C@H](NC)[C@@H](CC(=O)O)OC; Doe = c1ccc(C[C@H](N*)c2nccs2)cc1; Aib = CC(C)(N)C(=O)O

One experiment deals with N87-TM cells. Nature of the experiment: Cytotoxicity on T-DM1 resistant cells made in vitro, population not specified (MTS, 4 days). It is filed as cell-based. To be noted: N87-TM versus N87-parental. The procedure:
(§1) N87 cells were passaged into two separate flasks and each flask was treated identically with respect to the resistance-generation protocol to enable biological duplicates. […] The procedure was intended to simulate the chronic, multi-cycle (on/off) dosing at maximally tolerated doses typically used for cytotoxic therapeutics in the clinic, followed by a recovery period. […] Data were collected from various thawed cryopreserved populations derived from a single selection, over approximately 1-2 years after model development to ensure consistency in the results.
(§2) ADCs were prepared as indicated in Example 3. Unconjugated maytansine analog (DM1) and auristatin analogs were prepared by Pfizer Worldwide Medicinal Chemistry (Groton, Conn.). Other standard-of-care chemotherapeutics were purchased from Sigma (St. Louis, Mo.). Cells were seeded in 96-well plates at low density, then treated the following day with ADCs and unconjugated payloads at 3-fold serial dilutions at 10 concentrations in duplicate. Cells were incubated for 4 days in a humidified 37° C./5% CO2 incubator. The plates were harvested by incubating with CellTiter® 96 AQueous One MTS Solution (Promega, Madison, Wis.) for 1.5 hours and absorbance measured on a Victor plate reader (Perkin-Elmer, Waltham, Mass.) at wavelength 490 nm. IC50 values were calculated using a four-parameter logistic model with XLfit (IDBS, Bridgewater, N.J.).

The next experiment deals with parental N87 cells. As to the kind of experiment: Cytotoxicity on parental N87 cells (CellTiter Glo, 96 hours). It is filed as cell-based. The conditions noted are these: free payload, N87 cell line, read-out: Sensitivity to free payload (IC50), N87. The procedure: (§3) Cells were incubated for 96 hours in a humidified 37° C./5% CO2 incubator.
Experiment [1] concerns T-DM1 resistant cells (N87-TDM). As to the kind of experiment: Cytotoxicity on cells relapsed from T-DM1 treatment in vivo (CellTiter Glo, 96 hours). It is filed as cell-based. To be noted: for IC50: 96 h; for sensitivity of cells relapsed from T-DM1 treatment (in words): compared to parental N87. The procedure:
as §3
On the technique in general: Cellular ATP, detected with luciferase, serves as a proxy for viable cell number.

In the next experiment the test system is JIMT-1 breast xenografts. The conditions noted are these: even at 6 mg/kg, IV Q4dx4.
Another experiment deals with N87 tumors. Nature of the experiment: In vivo efficacy on parental N87 tumors in NSG mice. More on the design: species or system mouse. To be noted: 6 and 10 mg/kg, Q4Dx4, N87 model.
Experiment [2] has as its system 37622 patient-derived xenografts. To be noted: 10 mg/kg, IV Q4dx4.
Procedure: (§4) For each model described below the first dose was given on Day 1. The tumors were measured at least once a week and their volume was calculated with the formula: tumor volume (mm^3)=0.5× (tumor width^2)(tumor length). The mean tumor volumes (±S.E.M.) for each treatment group were calculated having a maximum of 8-10 animals and a minimum of 6-8 animals to be included.
Several ADCs were tested in patient-derived Non-Small Cell Lung Cancer xenograft model of 37622 obtained in accordance with appropriate consent procedures. The 37622 patient-derived xenografts were subcutaneously passaged in vivo as fragments from animal to animal in nude (Nu/Nu) female mice. When the tumors reached a volume of 150 to 300 mm^3, they were staged to ensure uniformity of the tumor size among various treatment groups.
For experiment [3], the system named is GA0044 patient-derived xenografts. Nature of the experiment: GA0044 patient-derived gastric cancer xenograft model. It is filed as in vivo, mouse. The conditions noted are these: IV Q4dx4, dose not stated. On the technique in general: Xenograft models place foreign cells or tissue in a host animal.
Experiment [4] concerns Her2-expressing cell lines BT474 and SKBR3. Nature of the experiment: ADCC assay (LDH release, NK-92 or human PBMC effector cells). The conditions noted are these: 1 μg/ml antibody or ADC, 6 hours. It is filed as cell-based.
Procedure: In ADCC assays, Her2-expressing cell lines BT474 and SKBR3 were used as target cells while NK-92 cells (an interleukin-2 dependent natural killer cell line derived from peripheral blood mononuclear cells from a person by Conkwest) or human peripheral blood mononucleocytes (PBMC) isolated from the freshly drawn blood from a healthy donor (#179) were used as effector cells.
Target cells (BT474 or SKBR3) of 1×10^4 cells/100 μl/well were placed in 96-well plate and cultured overnight in RPMI1640 media at 37° C./5% CO2. […]
Assay plates were incubated at 37° C./5% CO2 for 6 hours and then equilibrated to room temperature. LDH release from cell lysis was measured using CytoTox-One™ reagent at an excitation wavelength of 560 nm and an emission wavelength of 590 nm. […]
“Experimental” corresponds to the signal measured in one of the condition described above.
“Effector spontaneous” corresponds to the signal measured in the presence of PBMC alone.
“Target spontaneous” corresponds to the signal measured in the presence of target cells alone.
“Target Maximum” corresponds to the signal measured in the presence of detergent-lysed target cells alone.
For experiment [5], the system named is N87 cell line xenograft tumors. As to the kind of experiment: Bystander effect, immunohistochemistry (human IgG, pHH3) of N87 xenograft tumors. To be noted: single dose, T-DM1 6 mg/kg or T-vc0101 3 mg/kg, 96 hours. It is filed as in vivo, mouse.
Source text: Tumor sections were stained for human IgG to detect ADC bound to tumor cells and phospho-histone H3 (pHH3) to detect mitotic cells as a readout of the proposed mechanism of action for the payloads of both ADCs.
For another experiment, the system named is N87 gastric xenografts. As to the kind of experiment: N87 gastric xenograft model. It is filed as in vivo, mouse. To be noted: IV Q4dx4.
The test system of experiment [6] is 144580 breast patient-derived xenografts. The conditions noted are these: all doses tested (1, 5, 3 and 6 mg/kg), IV Q4dx4.
Procedure: as §4
The 144580 breast patient-derived xenografts were subcutaneously passaged in vivo as fragments from animal to animal in nude (Nu/Nu) female mice. When the tumors reached a volume of 150 to 300 mm^3, they were staged to ensure uniformity of the tumor size among various treatment groups.
The next experiment deals with N87 cells. The conditions noted are these: read-out: IC80, payload concentration, approximate. The procedure:
as §1, §2

Another experiment deals with N87 xenografts. Nature of the experiment: T-DM1 resistance generated in vivo in N87 xenografts and follow-on treatment. More on the design: species or system mouse. The conditions noted are these: […] weekly, n=20.
Where [7] appears, read: read-out: Sensitivity to free payload (IC50), N87-T-DM1_Ms2.
The mark [8] stands for this setting: read-out: Sensitivity to free payload (IC50), N87-T-DM1_Ms7.
The mark [9] stands for this setting: read-out: Sensitivity to free payload (IC50), N87-T-DM1_Ms17.

Procedure for JIMT-1 breast xenografts: as §4
To generate xenografts, nude (Nu/Nu) female mice were implanted subcutaneously with 5×10^6 JIMT-1 cells (DSMZ # ACC-589) in 50% Matrigel (BD Biosciences). When the tumors reached a volume of 200 to 250 mm^3, the tumors were staged to ensure uniformity of the tumor mass among various treatment groups.
Procedure for N87 gastric xenografts: as §4
When the tumors reached a volume of 250 to 450 mm^3, the tumors were staged to ensure uniformity of the tumor mass among various treatment groups.
Procedure for N87 tumors: Mice were injected subcutaneously in the right flank with suspensions of either N87 or N87-TM cells (7.5×10^6 cells per injection, with 50% Matrigel). Mice were randomized into study groups when tumors reached ˜0.3 g (˜250 mm^3). […] Tumors were measured weekly and mass calculated as volume=(width×width×length)/2. Time-to-event analysis (tumor doubling) was conducted and significance evaluated by Log-rank (Mantel-Cox) test.
Procedure for N87 xenografts: Tumors were measured twice per week or weekly and mass calculated as volume=(width×width×length)/2.

With `CC(=O)O[C@H]1C(=O)[C@@]2(C)[C@H]([C@H](OC(=O)c3ccccc3)[C@]3(O)C[C@H](OC(=O)[C@H](O)[C@@H](NC(=O)c4ccccc4)c4ccccc4)C(C)=C1C3(C)C)[C@]1(OC(C)=O)CO[C@@H]1C[C@@H]2O` [paclitaxel], the “sensitivity of N87-TM cells (in words)” value with N87-TM cells is listed as “lack of cross-resistance”.
As for `COc1cc2cc(c1Cl)N(C)C(=O)C[C@H](OC(=O)[C@H](C)N(C)C(=O)CCS)[C@]1(C)O[C@H]1[C@H](C)[C@@H]1C[C@@](O)(NC(=O)O1)[C@H](OC)/C=C/C=C(\C)C2` [DM1], in the experiment with N87-TM cells, the “sensitivity of N87-TM cells (in words)” value was “retained sensitivity”.
Regarding `COc1cccc2c1C(=O)c1c(O)c3c(c(O)c1C2=O)C[C@@](O)(C(=O)CO)C[C@@H]3O[C@H]1C[C@H](N)[C@H](O)[C@H](C)O1` [doxorubicin], the IC50 (usually the concentration needed to halve the response being measured) in the experiment on parental N87 cells was 0.048 µM; in [1] (setting [7]) it was 0.046 µM; in experiment [1] (setting [8]) it was 0.079 µM; in experiment [1] (setting [9]), 0.034 µM. Also, the “sensitivity of N87-TM cells (in words)” value in the experiment with N87-TM cells is “lack of cross-resistance”. In addition, the “sensitivity of cells relapsed from T-DM1 treatment (in words)” value (from here on “sensitivity of cells relapsed”) in experiment [1] is “No resistance”.
In the case of `CC[C@H](C)[C@@H]([C@@H](CC(=O)N1CCC[C@H]1[C@H](OC)[C@@H](C)C(=O)N[C@@H](Cc1ccccc1)c1nccs1)OC)N(C)C(=O)[C@@H](NC(=O)C(C)(C)N)C(C)C` [Aur-0101] (H-[Aib]V[Dil][Dolaproine]-Doe), the IC50 is 0.0005 µM in the experiment with parental N87 cells, 0.0004 µM in experiment [1] (setting [7]), 0.0006 µM in [1] (setting [8]) and 0.00028 µM in experiment [1] (setting [9]).
As for T-DM1, the tumor response result in the experiment with JIMT-1 breast xenografts was “inactive”; in experiment [2], “only provided some therapeutic benefit”; in the experiment with N87 gastric xenografts (10 mg/kg), “complete regression of tumors”; with N87 gastric xenografts (1 and 3 mg/kg), “delayed tumor growth”; in experiment [6] it was “ineffective”. The “mice in which tumor doubling was prevented for at least 60 days” value in the experiment on N87 tumors was over 50%. For the same molecule, in [3], the “tumor growth compared to vehicle” value is “no appreciable difference in tumor growth as compared to vehicle treated tumors”. For the same molecule, the “ADCC activity (in words)” value in experiment [4] is given as “conform the reported ADCC activities”. The “location of the majority of pHH3 positive tumor cells” value in experiment [5] is “located near the ADC”. Further, in the experiment with N87 cells, the IC80 is about 0.01 µM. In addition, the “mice that responded to initial T-DM1 treatment” value in the experiment on N87 xenografts was 17 out of 20. For the same molecule, the “sensitivity of cells relapsed” value in experiment [1] is “resistant”.
In the case of `CC[C@H](C)[C@@H]([C@@H](CC(=O)N1CCC[C@H]1[C@H](OC)[C@@H](C)C(=O)N[C@@H](Cc1ccccc1)c1nccs1)OC)N(C)C(=O)[C@@H](NC(=O)C(C)(C)N)C(C)C` [compound 0101, 2-methylalanyl-N-[(3R,4S,5S)-3-methoxy-1-{(2S)-2-[(1R,2R)-1-methoxy-2-methyl-3-oxo-3-{[(1S)-2-phenyl-1-(1,3-thiazol-2-yl)ethyl]amino}propyl]pyrrolidin-1-yl}-5-methyl-1-oxoheptan-4-yl]-N-methyl-L-valinamide] (H-[Aib]V[Dil][Dolaproine]-Doe), the “sensitivity of N87-TM cells (in words)” value with N87-TM cells is “retained sensitivity”. Further, the “sensitivity of cells relapsed” value in experiment [1] was “surprisingly sensitive; also recorded: not resistant”.
